# Source: the OligoGym collection
# Values joined by “and” are separate entries in the source; they are usually repeats but may differ in a detail not shown here. Equal values may be shown once. After the bases stand the sugars from the 5' end (letter, count) and the backbone: PS all phosphorothioate, else s phosphorothioate and o phosphodiester by linkage. Methylation of C is not given here. e = 2'-O-(2-methoxyethyl) (MOE); d = 2'-deoxy (DNA)
# Biological target: DGAT2
# Conditions: ASO
Sequence,"target mRNA inhibition (HepG2, 0.12 µM)","target mRNA inhibition (HepG2, 2.5 µM)","target mRNA inhibition (HepG2, 10 µM)","target mRNA inhibition (HepG2, 20 µM)"
"CCAGTTTCGGACCCACTGTG (sugars e5 d10 e5, PS)",83%,28%,31%,65%
"CCATGTACATGGTGTGGTAC (sugars e5 d10 e5, PS)",52%,,,
"CCCACTGGAGCACTGAGATG (sugars e3 d14 e3, PS)",75%,,,
"CCCAGATTTAGCCACCACCT (sugars e5 d10 e5, PS)",,56%,72%,
"CCCAGTACTTTCTTCTCATG (sugars e5 d10 e5, PS)",,72%,96%,
"CCCAGTTTCGGACCCACTGT (sugars e2 d13 e5, PS)",70%,,,
"CCCAGTTTCGGACCCACTGT (sugars e3 d14 e3, PS)",76%,,,
"CCCAGTTTCGGACCCACTGT (sugars e5 d10 e5, PS)",85%,24% and 25%,33%,57%
"CCCATCTCCCAGACCCCTCG (sugars e5 d10 e5, PS)",12%,,,
"CCCTCTTAGAAGTAATGCTT (sugars e5 d10 e5, PS)",,,85% and 89%,
"CCGGAGTAGGCGGCTATGAG (sugars e5 d10 e5, PS)",37%,,,
"CCTCCTTAGCTTTAATCCAG (sugars e5 d10 e5, PS)",,43%,82%,
"CCTCTGCTTCTTGGGCATCT (sugars e5 d10 e5, PS)",,92% and 91%,91% and 89%,
"CCTGGACAAGTCCTGCCCAT (sugars e2 d13 e5, PS)",59%,,,
"CCTGGTGGTCAGCAGGTTGT (sugars e5 d10 e5, PS)",64%,,,
"CGAAGATCACCTGCTTGTAC (sugars e5 d10 e5, PS)",63%,,,
"CGCGCAGGACCCCGGAGTAG (sugars e2 d13 e5, PS)",67%,,,
"CGGACTGAATGTCACCT (sugars e3 d10 e4, PS)",,60% and 68%,87% and 83%,
"CTCAGAGACTCAGCCGCACC (sugars e2 d13 e5, PS)",43%,,,
"CTCCTGTTTGATGGGTAAAA (sugars e5 d10 e5, PS)",,90%,80%,
"CTGCATAGCTGAGCAAATCC (sugars e5 d10 e5, PS)",,52%,70%,
"CTGCCACCTTCCAGGGAATA (sugars e5 d10 e5, PS)",27%,,,

Sequence,"target mRNA inhibition (HepG2, 0.12 µM)","target mRNA inhibition (HepG2, 2.5 µM)","target mRNA inhibition (HepG2, 10 µM)","target mRNA inhibition (HepG2, 20 µM)"
"CTGCCATTTAATGAGCTTCA (sugars e5 d10 e5, PS)",,,94% and 95% and 89%,
"CTGCTTGTACACTTCATTCT (sugars e5 d10 e5, PS)",58%,,,
"CTGGACAAGTCCTGCCCATC (sugars e2 d13 e5, PS)",58%,,,
"CTGGACAAGTCCTGCCCATC (sugars e5 d10 e5, PS)",77%,,,
"CTGGATGGGAAAGTAGTCTC (sugars e5 d10 e5, PS)",38%,,,
"CTGTGAGGCCAAGGACAGAG (sugars e5 d10 e5, PS)",,50%,81%,
"CTGTGCTCTGTGGGCTCCTC (sugars e5 d10 e5, PS)",,57%,89%,
"CTTCTGGACCCATCGGCCCC (sugars e5 d10 e5, PS)",30%,,,
"CTTCTTCTGGACCCATCGGC (sugars e5 d10 e5, PS)",27%,,,
"CTTGGGTGTGTTCCAGTCAA (sugars e5 d10 e5, PS)",5%,,,
"CTTGTGCTTGTCGAAGAGCT (sugars e5 d10 e5, PS)",,33%,66%,
"CTTTGAAATCCAATGCACCT (sugars e5 d10 e5, PS)",,65%,92%,
"GAAATCCAATGCACCTTGTA (sugars e5 d10 e5, PS)",,63%,94%,
"GAAGTCAGGCCAAGTGCCAA (sugars e5 d10 e5, PS)",26%,,,
"GAATGGTGTGTTGGCTCCCT (sugars e5 d10 e5, PS)",,54%,75%,
"GACAAAGTCTATCAGGATGC (sugars e5 d10 e5, PS)",,88% and 67%,92% and 91%,
"GACACACAATATCCATGGAC (sugars e5 d10 e5, PS)",,72%,93%,
"GACTCAGTGTCCTCCTTAGC (sugars e5 d10 e5, PS)",,,73%,
"GACTTCCCTTCACAGAATCC (sugars e5 d10 e5, PS)",5%,,,
"GAGATGGTGATAAGGCAGCA (sugars e5 d10 e5, PS)",,46% and 50%,80%,
"GAGCACTTGATCTGGGACCC (sugars e5 d10 e5, PS)",,80% and 71%,92% and 91%,
"GAGCTCAGAGACTCAGCCGC (sugars e3 d14 e3, PS)",89%,,72% and 73%,

Sequence,"target mRNA inhibition (HepG2, 0.12 µM)","target mRNA inhibition (HepG2, 2.5 µM)","target mRNA inhibition (HepG2, 10 µM)","target mRNA inhibition (HepG2, 20 µM)"
"GAGTAGGCGGCTATGAGGGT (sugars e5 d10 e5, PS)",11%,,,
"GAGTATAGAAATTTCACTGA (sugars e5 d10 e5, PS)",44%,,,
"GAGTCTGTGCTGCATCCATG (sugars e5 d10 e5, PS)",48%,,,
"GATAGCATTGCCACTCCCAT (sugars e2 d13 e5, PS)",62%,,,
"GATCACCTGCTTGTACACTT (sugars e5 d10 e5, PS)",,36%,64%,
"GATTATTCTAAAACTCAAAT (sugars e5 d10 e5, PS)",0%,,,
"GATTTGTACTTGAATCCAGG (sugars e5 d10 e5, PS)",34%,,,
"GCAAATAGTCTATGGTGTCC (sugars e5 d10 e5, PS)",60%,,,
"GCACAGCGATGAGCCAGCAA (sugars e5 d10 e5, PS)",,50% and 45% and 69%,92% and 89% and 94%,
"GCACCAAGGAATGGTGTGTT (sugars e5 d10 e5, PS)",,16%,38%,
"GCACCATAATCTGCACAGGT (sugars e5 d10 e5, PS)",,88% and 86%,93% and 89% and 92%,
"GCACCTTGTATTAAATACTC (sugars e5 d10 e5, PS)",,75%,91%,
"GCAGCAGGTACTCATGTTTG (sugars e5 d10 e5, PS)",,54%,75%,
"GCAGCCTGGACAAGTCCTGC (sugars e2 d13 e5, PS)",77%,,,
"GCAGGACCCCGGAGTAGGCG (sugars e3 d14 e3, PS)",70%,,,
"GCAGGCCTCGGGAAGCACCT (sugars e5 d10 e5, PS)",,69% and 67%,93% and 87%,
"GCAGGTTCATCTGCCTTGAC (sugars e5 d10 e5, PS)",,80% and 65%,81% and 85%,
"GCCAACAAGTGGGAAATGCA (sugars e5 d10 e5, PS)",,51%,80%,
"GCCAAGGACAGAGGTTCAAC (sugars e5 d10 e5, PS)",,61%,90%,
"GCCAATGCCTAGGTCACAGT (sugars e5 d10 e5, PS)",,87% and 93%,84% and 90%,
"GCCAGGTAAGGCCGTATGCC (sugars e5 d10 e5, PS)",68%,,,
